Values belong to the compound of their own block, whether it stands above or below them.
Columns and labels:
[1] = test system: KRAS G12D mutant pancreatic cancer cell line AsPC-1; test: Cell viability assay using KRAS G12D mutant cells (AsPC-1, 3D culture, celltiter-glo 3D); assay type: cell-based; details: Homo sapiens, ASPC1, 5th day after compound treatment
Method in brief: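 AsPC-1 cells in 3D culture, 1000 cells/well, treated next day with 1/5 serial dilutions from 10 μM or 50 μM, 1:1 v/v. Viability read by CellTiter-Glo 3D on day 5, normalized to DMSO (100%) and untreated backgrounds; IC50 from four-parameter sigmoidal fit.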

[2] = biological target: T1, GppNHp-KRAS G12D mutant protein (Homo sapiens, UniProt P01116, G12D); test: Differential scanning fluorimetry (DSF) binding affinity to GppNHp-KRAS G12D mutant protein; details: DSF thermal shift, 10 μM compound, 4 μg KRAS protein, 50 mM HEPES (pH 7.5)
T1 construct: purchased Daegu Gyeongbuk Medical Innovation Foundation (DGMIF), made to order
Method in brief: (§1)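 Each sample held 4 μg recombinant KRAS G12D (GDP- or GppNHp-bound) and 10 μM compound, incubated 30 min at room temperature before adding 2× SYPRO Orange. The GDP form was run in kit buffer, the GppNHp form in 50 mM HEPES pH 7.5. Melt was 25–99 °C at 0.05 °C/s (580/623 nm), reported as ΔTm versus no compound.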

[3] = test system: ERK phosphorylation (pERK) induced by KRAS G12D mutation; test: Inhibitory activity against ERK phosphorylation (pERK) induced by KRAS G12D mutation, immunofluorescence assay in AsPC-1 cells; assay type: cell-based; details: Homo sapiens, ASPC1, 3 h drug treatment, pERK (Thr202/Tyr204) signal normalized to DAPI
Method in brief: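 AsPC-1 cells attached 16 h, then treated 3 h with 3-fold dilutions from 10 μM top. Fixed, permeabilized, immunostained for pERK (Thr202/Tyr204) with Alexa 488 secondary; high-content imaging, signal normalized to DAPI and to DMSO, IC50 from four-parameter fit.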

[4] = biological target: T2, GDP-KRAS G12D mutant protein (Homo sapiens, UniProt P01116, G12D); test: Differential scanning fluorimetry (DSF) binding affinity to GDP-KRAS G12D mutant protein; details: DSF thermal shift, 10 μM compound, 4 μg KRAS protein
T2 construct: purchased Daegu Gyeongbuk Medical Innovation Foundation (DGMIF), made to order
Method in brief: as §1

IC50 [1]: 734 nM
GppNHp-KRAS G12D (ΔTmD, ° C.) [2]: 5.31 °C
GDP-KRAS G12D (ΔTmD, ° C.) [4]: 6.35 °C
Compound: C#Cc1c(F)ccc2cc(O)cc(-c3c(F)c4nc(OC[C@@]56CCCN5C[C@H](F)C6)nc(N5CC6CCC5CN6)c4c4cn(C)nc34)c12 (stereo partly drawn) [Example 88, 4-(9-(2,5-diazabicyclo[2.2.2]octan-2-yl)-5-fluoro-7-(((2R,7aS)-2-fluorotetrahydro-1H-pyrrolizin-7a(5H)-yl)methoxy)-2-methyl-2H-pyrazolo[4,3-n]quinazolin-4-yl)-5-ethynyl-6-fluoronaphthalen-2-ol]
IC50 [3]: 484 nM

Compound: C#Cc1c(F)ccc2cc(N)cc(-c3c(F)c4nc(OC[C@@]56CCCN5C[C@H](F)C6)nc(N5C[C@H]6CC[C@@H](C5)N6)c4c4cc(C)oc34)c12 [Example 57, 4-(1-((1R,5S)-3,8-diazabicyclo[3.2.1]octan-3-yl)-5-fluoro-3-(((2R,7aS)-2-fluorotetrahydro-1H-pyrrolizin-7a(5H)-yl)methoxy)-8-methylfuro[3,2-f]quinazolin-6-yl)-5-ethynyl-6-fluoronaphthalen-2-amine]
IC50 [1]: 101 nM
GppNHp-KRAS G12D (ΔTmD, ° C.) [2]: 5.76 °C
IC50 [3]: 167 nM
GDP-KRAS G12D (ΔTmD, ° C.) [4]: 8.57 °C

Compound: C#Cc1c(F)ccc2cc(N)cc(-c3cc4nc(OC[C@@]56CCCN5C/C(=C\F)C6)nc(N5C[C@H]6CC[C@@H](C5)N6)c4c4cn(C)nc34)c12 [Example 74, 4-(9-((1R,5S)-3,8-diazabicyclo[3.2.1]octan-3-yl)-7-(((S,Z)-2-(fluoromethylene)tetrahydro-1H-pyrrolizin-7a(5H)-yl)methoxy)-2-methyl-2H-pyrazolo[4,3-f]quinazolin-4-yl)-5-ethynyl-6-fluoronaphthalen-2-amine]
IC50 [1]: 110 nM
GppNHp-KRAS G12D (ΔTmD, ° C.) [2]: 5.30 °C
IC50 [3]: 143 nM
GDP-KRAS G12D (ΔTmD, ° C.) [4]: 7.82 °C

Compound: C#Cc1c(F)ccc2cc(O)cc(-c3cc4nc(OC[C@@]56CCCN5C/C(=C\F)C6)nc(N5C[C@H]6CC[C@@H](C5)N6)c4n4ccnc34)c12 [Example 29, 4-(1-((1R,5S)-3,8-diazabicyclo[3.2.1]octan-3-yl)-3-(((S,Z)-2-(fluoromethylene)tetrahydro-1H-pyrrolizin-7a(5H)-yl)methoxy)imidazo[1′,2′:1,6]pyrido[3,2-d]pyrimidin-6-yl)-5-ethynyl-6-fluoronaphthalen-2-ol]
IC50 [1]: 19 nM
GppNHp-KRAS G12D (ΔTmD, ° C.) [2]: 6.82 °C
IC50 [3]: 15 nM
GDP-KRAS G12D (ΔTmD, ° C.) [4]: 12.01 °C

Compound: C#Cc1c(F)ccc2cc(O)cc(-c3cc4nc(OC[C@@]56CCCN5C/C(=C\F)C6)nc(N5C[C@H]6CC[C@@H](C5)N6)c4c4cn(C)nc34)c12 [Example 75, 4-(9-((1 R,5S)-3,8-diazabicyclo[3.2.1]octan-3-yl)-7-(((S,Z)-2-(fluoromethylene)tetrahydro-1H-pyrrolizin-7a(5H)-yl)methoxy)-2-methyl-2H-pyrazolo[4,3-f]quinazolin-4-yl)-5-ethynyl-6-fluoronaphthalen-2-ol]
IC50 [1]: 34 nM
GppNHp-KRAS G12D (ΔTmD, ° C.) [2]: 9.60 °C
IC50 [3]: 20 nM
GDP-KRAS G12D (ΔTmD, ° C.) [4]: 13.74 °C

Compound: CCc1c(F)ccc2cc(O)cc(-c3c(F)c4nc(OC[C@@]56CCCN5C/C(=C\F)C6)nc(N5C[C@H]6CC[C@@H](C5)N6)c4c4cn(C)nc34)c12 [Example 85, 4-(9-((1R,5S)-3,8-diazabicyclo[3.2.1]octan-3-yl)-5-fluoro-7-(((S,Z)-2-(fluoromethylene)tetrahydro-1H-pyrrolizin-7a(5H)-yl)methoxy)-2-methyl-2H-pyrazolo[4,3-f]quinazolin-4-yl)-5-ethyl-6-fluoronaphthalen-2-ol]
IC50 [1]: 11 nM
GppNHp-KRAS G12D (ΔTmD, ° C.) [2]: 12.43 °C
IC50 [3]: 7 nM
GDP-KRAS G12D (ΔTmD, ° C.) [4]: 15.24 °C

From patent US20260209249A1, “NOVEL TRICYCLIC COMPOUND AS KRAS G12D INHIBITOR, AND USE THEREOF” (SK Biopharmaceuticals Co., priority 2022, published 2026)
